# Assay results published in US8871787B2, “Stable crystalline salt of (R)-3-fluorophenyl-3,4,5-trifluorobenzylcarbamic acid 1-azabicyclo [2.2.2]oct-3-yl ester” (Laboratorios Salvat, S.A., priority 2007, dated 2014).
# Tests used:
# [1] = Hygroscopicity study at controlled relative humidity; type: physicochemical; set-up: mass gain or mass loss: unit not given here
# [2] = Physicochemical stability and hygroscopicity of the salts on storage; settings: for physicochemical stability (in words): storage or formulation, room and enhanced temperature, high humidity, aqueous media
# Description: Compound I is also disclosed in WO2004000840. On the other hand, compound I is exemplified as hydrochloride salt in WO2003053966 as an intermediate in the synthesis of other compounds. […] Upon storage or formulation of said known salt, progressive decomposition and concomitantly an increase in the amount and number of impurities was observed. Obviously, this problem is further aggravated under demanding environmental conditions such as light, heat, humidity or acidity.
# It has been particularly difficult to find stable, crystalline forms of (R)-3-fluorophenyl-3,4,5-trifluorobenzylcarbamic acid 1-azabicyclo[2.2.2]oct-3-yl ester. […] Thus, there remains a need for a salt of (R)-3-fluorophenyl-3,4,5-trifluorobenzylcarbamic acid 1-azabicyclo[2.2.2]oct-3-yl ester that forms a crystalline solid that has a desirable morphology, be stable in the presence of water and under conditions of a high relative humidity (above 85%) and can readily be prepared on a large scale.
smiles,measurement,setting,value
"O=C(O)C(O)C(O)C(=O)O.O=C(O[C@H]1CN2CCC1CC2)N(Cc1cc(F)c(F)c(F)c1)c1cccc(F)c1 [D-tartrate salt, D-tartrate salt of (R)-3-fluorophenyl-3,4,5-trifluorobenzylcarbamic acid 1-azabicyclo[2.2.2]oct-3-yl ester]",mass gain or mass loss,"[1]; 12% RH, 4 h",−0.26
same,mass gain or mass loss,"[1]; 12% RH, 8 h",−0.20
same,mass gain or mass loss,"[1]; 12% RH, 14 h",−0.30
same,mass gain or mass loss,"[1]; 12% RH, 48 h",−0.04
same,mass gain or mass loss,"[1]; 12% RH, 96 h",−0.30
same,mass gain or mass loss,"[1]; 12% RH, 144 h",−0.33
same,mass gain or mass loss,"[1]; 12% RH, 168 h",−0.32
same,mass gain or mass loss,"[1]; 12% RH, 192 h",−0.27
same,mass gain or mass loss,"[1]; 12% RH, 216 h",−0.29
same,mass gain or mass loss,"[1]; 12% RH, 240 h",−0.08
same,mass gain or mass loss,"[1]; 22% RH, 4 h",−0.16
same,mass gain or mass loss,"[1]; 22% RH, 8 h",−0.26
same,mass gain or mass loss,"[1]; 22% RH, 14 h",−0.25
same,mass gain or mass loss,"[1]; 22% RH, 48 h",−0.21
same,mass gain or mass loss,"[1]; 22% RH, 96 h",−0.26
same,mass gain or mass loss,"[1]; 22% RH, 144 h",−0.18
same,mass gain or mass loss,"[1]; 22% RH, 168 h",−0.28
same,mass gain or mass loss,"[1]; 22% RH, 192 h",−0.21
same,mass gain or mass loss,"[1]; 22% RH, 216 h",−0.19
same,mass gain or mass loss,"[1]; 22% RH, 240 h",−0.11
same,mass gain or mass loss,"[1]; 33% RH, 4 h",−0.25
same,mass gain or mass loss,"[1]; 33% RH, 8 h",−0.24
same,mass gain or mass loss,"[1]; 33% RH, 14 h",−0.21
same,mass gain or mass loss,"[1]; 33% RH, 48 h",−0.19
same,mass gain or mass loss,"[1]; 33% RH, 96 h",−0.17
same,mass gain or mass loss,"[1]; 33% RH, 144 h",−0.30
same,mass gain or mass loss,"[1]; 33% RH, 168 h",−0.39
same,mass gain or mass loss,"[1]; 33% RH, 192 h",−0.11
same,mass gain or mass loss,"[1]; 33% RH, 216 h",−0.15
same,mass gain or mass loss,"[1]; 33% RH, 240 h",−0.18
same,mass gain or mass loss,"[1]; 43% RH, 4 h",−0.38
same,mass gain or mass loss,"[1]; 43% RH, 8 h",−0.32
same,mass gain or mass loss,"[1]; 43% RH, 14 h",−0.21
same,mass gain or mass loss,"[1]; 43% RH, 48 h",−0.25
same,mass gain or mass loss,"[1]; 43% RH, 96 h",−0.30
same,mass gain or mass loss,"[1]; 43% RH, 144 h",−0.40
same,mass gain or mass loss,"[1]; 43% RH, 168 h",−0.34
same,mass gain or mass loss,"[1]; 43% RH, 192 h",−0.19
same,mass gain or mass loss,"[1]; 43% RH, 216 h",−0.25
same,mass gain or mass loss,"[1]; 43% RH, 240 h",−0.18
same,mass gain or mass loss,"[1]; 53% RH, 4 h",−0.19
same,mass gain or mass loss,"[1]; 53% RH, 8 h",−0.21
same,mass gain or mass loss,"[1]; 53% RH, 14 h",−0.16
same,mass gain or mass loss,"[1]; 53% RH, 48 h",−0.17
same,mass gain or mass loss,"[1]; 53% RH, 96 h",−0.19
same,mass gain or mass loss,"[1]; 53% RH, 144 h",−0.17
same,mass gain or mass loss,"[1]; 53% RH, 168 h",−0.16
same,mass gain or mass loss,"[1]; 53% RH, 192 h",−0.20
same,mass gain or mass loss,"[1]; 53% RH, 216 h",−0.14
same,mass gain or mass loss,"[1]; 53% RH, 240 h",0.00
same,mass gain or mass loss,"[1]; 64% RH, 4 h",−0.08
same,mass gain or mass loss,"[1]; 64% RH, 8 h",−0.07
same,mass gain or mass loss,"[1]; 64% RH, 14 h",−0.07
same,mass gain or mass loss,"[1]; 64% RH, 48 h",0.02
same,mass gain or mass loss,"[1]; 64% RH, 96 h",−0.07
same,mass gain or mass loss,"[1]; 64% RH, 144 h",0.15
same,mass gain or mass loss,"[1]; 64% RH, 168 h",0.15
same,mass gain or mass loss,"[1]; 64% RH, 192 h",0.20
same,mass gain or mass loss,"[1]; 64% RH, 216 h",0.25
same,mass gain or mass loss,"[1]; 64% RH, 240 h",0.59
same,mass gain or mass loss,"[1]; 75% RH, 4 h",−0.08
same,mass gain or mass loss,"[1]; 75% RH, 8 h",0.02
same,mass gain or mass loss,"[1]; 75% RH, 14 h",0.01
same,mass gain or mass loss,"[1]; 75% RH, 48 h",0.06
same,mass gain or mass loss,"[1]; 75% RH, 96 h",−0.06
same,mass gain or mass loss,"[1]; 75% RH, 144 h",−0.08
same,mass gain or mass loss,"[1]; 75% RH, 168 h",−0.05
same,mass gain or mass loss,"[1]; 75% RH, 192 h",0.00
same,mass gain or mass loss,"[1]; 75% RH, 216 h",0.01
same,mass gain or mass loss,"[1]; 75% RH, 240 h",0.29
same,mass gain or mass loss,"[1]; 85% RH, 4 h",0.16
same,mass gain or mass loss,"[1]; 85% RH, 8 h",0.13
same,mass gain or mass loss,"[1]; 85% RH, 14 h",0.22
same,mass gain or mass loss,"[1]; 85% RH, 48 h",0.26
same,mass gain or mass loss,"[1]; 85% RH, 96 h",0.07
same,mass gain or mass loss,"[1]; 85% RH, 144 h",0.24
same,mass gain or mass loss,"[1]; 85% RH, 168 h",0.18
same,mass gain or mass loss,"[1]; 85% RH, 192 h",0.15
same,mass gain or mass loss,"[1]; 85% RH, 216 h",0.23
same,mass gain or mass loss,"[1]; 85% RH, 240 h",0.59
same,mass gain or mass loss (in words),[1]; 93% RH or below,No significant mass gain or mass loss
same,mass gain or mass loss,"[1]; 93% RH, 4 h",0.16
same,mass gain or mass loss,"[1]; 93% RH, 8 h",0.03
same,mass gain or mass loss,"[1]; 93% RH, 14 h",0.24
same,mass gain or mass loss,"[1]; 93% RH, 48 h",0.44
same,mass gain or mass loss,"[1]; 93% RH, 96 h",0.40
same,mass gain or mass loss,"[1]; 93% RH, 144 h",0.43
same,mass gain or mass loss,"[1]; 93% RH, 168 h",0.39
same,mass gain or mass loss,"[1]; 93% RH, 192 h",0.38
same,mass gain or mass loss,"[1]; 93% RH, 216 h",0.43
same,mass gain or mass loss,"[1]; 93% RH, 240 h",0.81
same,water addition (in words),[1]; 97% RH,significant water addition issue
same,mass gain or mass loss,"[1]; 97% RH, 4 h",1.51
same,mass gain or mass loss,"[1]; 97% RH, 8 h",1.06
same,mass gain or mass loss,"[1]; 97% RH, 14 h",4.36
same,mass gain or mass loss,"[1]; 97% RH, 48 h",7.86
same,mass gain or mass loss,"[1]; 97% RH, 96 h",13.77
same,mass gain or mass loss,"[1]; 97% RH, 144 h",23.58
same,mass gain or mass loss,"[1]; 97% RH, 168 h",23.62
same,mass gain or mass loss,"[1]; 97% RH, 192 h",23.06
same,mass gain or mass loss,"[1]; 97% RH, 216 h",22.13
same,mass gain or mass loss,"[1]; 97% RH, 240 h",19.88
same,KF initial,[1]; before the hygroscopicity study,HYGR[…] (KF initial = 0.9692%)
same,hygroscopicity (in words),[2],relatively non-hygroscopic
same,physicochemical stability (in words),[2],more stable than the hydrochloride salt
same,physicochemical stability (in words),[2]; listed as Form I,stable at room temperature
